Values quoted from earlier work, collected in patent US20230226006A1, “Compositions for the Treatment of Dry Eye and Methods of Use Thereof” (The Schepens Eye Research Institute, Inc., priority 2017, published 2023).

C=CCN=C=S [Allyl isothiocyanate, 3-Isothiocyanato-1-propene]
Solubility in organic solvents (organic solvents): well soluble | Solubility in water (water): slightly soluble
